This experiment has as its target ALK2 (Homo sapiens (Human), UniProt Q04771). Briefly: ALK2 inhibition, LanthaScreen Eu Kinase Binding Assay (ThermoFisher Scientific / Life Technologies). Particulars: read-out: Measured Ki (IC50) Value for Compounds: IC50. Here is the method:
Biochemical assays to measure the inhibitory effects of the compounds were performed by ThermoFisher Scientific (Life Technologies). ALK2 inhibition was tested using LanthaScreen™ Eu Kinase Binding Assay screening protocol.
(In TR-FRET formats the signal depends on donor and acceptor labels being close together.)

This note sets out measurements from patent US11661426B2, “Imidazole-containing inhibitors of ALK2 kinase” (BioCryst Pharmaceuticals, Inc., priority 2017, dated 2023).

ALK2, sequence (Q04771 21-509): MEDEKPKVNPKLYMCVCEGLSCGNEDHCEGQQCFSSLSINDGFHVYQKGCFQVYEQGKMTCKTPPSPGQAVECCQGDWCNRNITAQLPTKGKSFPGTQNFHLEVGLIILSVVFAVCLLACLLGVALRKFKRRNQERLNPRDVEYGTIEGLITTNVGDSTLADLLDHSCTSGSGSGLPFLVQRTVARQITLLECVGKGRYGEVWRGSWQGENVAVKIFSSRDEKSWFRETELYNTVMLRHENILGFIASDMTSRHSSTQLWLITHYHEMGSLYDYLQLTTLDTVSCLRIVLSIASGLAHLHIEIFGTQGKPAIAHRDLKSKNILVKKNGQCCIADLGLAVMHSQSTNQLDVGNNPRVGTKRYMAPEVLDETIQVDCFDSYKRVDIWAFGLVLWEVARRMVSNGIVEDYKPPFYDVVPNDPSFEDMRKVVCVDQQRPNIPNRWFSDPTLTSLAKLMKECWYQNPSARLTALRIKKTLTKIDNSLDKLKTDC

A word on the IC50: it is the concentration that inhibits the measured activity by half. Turning to `COc1cc(C(=O)N2CCC[C@H]2CO)cc(-n2cnc(Nc3nc(N4CCC[C@H]4CO)nn4cccc34)c2)c1` [Compound 416f, ((S)-2-(hydroxymethyl)pyrrolidin-1-yl)(3-(4-((2-((S)-2-(hydroxymethyl)pyrrolidin-1-yl)pyrrolo[2,1-f][1,2,4]triazin-4-yl)amino)-1H-imidazol-1-yl)-5-methoxyphenyl)methanone], the IC50 lay in the range of 100 to 1000 nM.

With `COc1cc(-n2cnc(Nc3nc(N4CCC[C@H]4C(N)=O)c4ncsc4n3)c2)cc(OC)c1OC` [Compound 196b, (S)-1-(5-((1-(3,4,5-trimethoxyphenyl)-1H-imidazol-4-yl)amino)thiazolo[5,4-d]pyrimidin-7-yl)pyrrolidine-2-carboxamide], the IC50 was less than 100 nM.

`COc1cc(-n2cnc(Nc3nc(N4CCC[C@H]4CO)nc4c3CCN(CCC(N)=O)C4)c2)cc(OC)c1OC` [Compound 254a, (S)-3-(2-(2-(hydroxymethyl)pyrrolidin-1-yl)-4-((1-(3,4,5-trimethoxyphenyl)-1H-imidazol-4-yl)amino)-5,6-dihydropyrido[3,4-d]pyrimidin-7(8H)-yl)propanamide]: the IC50 was less than 100 nM.

As to `COc1cc(-n2cnc(Nc3nc(N4CCC[C@H]4C(N)=O)c4occc4n3)c2)cc(OC)c1OC` [Compound 151b, (S)-1-(2-((1-(3,4,5-trimethoxyphenyl)-1H-imidazol-4-yl)amino)furo[3,2-d]pyrimidin-4-yl)pyrrolidine-2-carboxamide], the IC50 was in the range of 100 to 1000 nM.

With `OC[C@@H]1CCCN1c1nc(Nc2cn(-c3ccc(O)cc3)cn2)c2cccn2n1` [Compound 48c, (S)-4-(4-((2-(2-(hydroxymethyl)pyrrolidin-1-yl)pyrrolo[2,1-f][1,2,4]triazin-4-yl)amino)-1H-imidazol-1-yl)phenol], the IC50 was less than 100 nM.

Turning to `COc1cc(-n2cnc(Nc3nc4c(c(N5CCC[C@H]5CO)n3)COC4)c2)cc(OC)c1OC` [Compound 279c, (S)-(1-(2-((1-(3,4,5-trimethoxyphenyl)-1H-imidazol-4-yl)amino)-5,7-dihydrofuro[3,4-d]pyrimidin-4-yl)pyrrolidin-2-yl)methanol], the IC50 was less than 100 nM.

As to `COc1cc(-n2cnc(Nc3nc(N4CCC[C@H]4CO)nc4c3cnn4[C@H]3CC[C@@H](O)CC3)c2)cc(OC)c1OC` [Compound 457c, (cis)-4-(6-((S)-2-(hydroxymethyl)pyrrolidin-1-yl)-4-((1-(3,4,5-trimethoxyphenyl)-1H-imidazol-4-yl)amino)-1H-pyrazolo[3,4-d]pyrimidin-1-yl)cyclohexanol], the IC50 was less than 100 nM.

For `COc1cc(-n2cnc(Nc3nc(N4CCC[C@H]4CO)c4ccc(F)cc4n3)c2)cc(OC)c1OC` [Compound 276b, (S)-(1-(7-fluoro-2-((1-(3,4,5-trimethoxyphenyl)-1H-imidazol-4-yl)amino)quinazolin-4-yl)pyrrolidin-2-yl)methanol], the IC50 was less than 100 nM.

On to `COc1cc(-n2cnc(Nc3nc(N4CCC[C@H]4C(C)(C)O)c4cccn4n3)c2)cc(OC)c1OC` [Compound 222b, (S)-2-(1-(2-((1-(3,4,5-trimethoxyphenyl)-1H-imidazol-4-yl)amino)pyrrolo[2,1-f][1,2,4]triazin-4-yl)pyrrolidin-2-yl)propan-2-ol], for which the IC50 is less than 100 nM.

As to `COc1cc(C)cc(-n2cnc(Nc3nc(N4CCC[C@H]4CO)c4cccn4n3)c2)c1` [Compound 257d, (S)-(1-(2-((1-(3-methoxy-5-methylphenyl)-1H-imidazol-4-yl)amino)pyrrolo[2,1-f][1,2,4]triazin-4-yl)pyrrolidin-2-yl)methanol], the IC50 fell in the range of 100 to 1000 nM.

For `Cc1cc(Cl)cc(-c2cnc(Nc3nc(N4CCC[C@H]4CO)nn4cccc34)s2)c1` [Compound 475c, (S)-(1-(4-((5-(3-chloro-5-methylphenyl)thiazol-2-yl)amino)pyrrolo[2,1-f][1,2,4]triazin-2-yl)pyrrolidin-2-yl)methanol], the IC50 was greater than 1000 nM.

Take `OC[C@@H]1CCCN1c1nc(Nc2cn(-c3ccc(OC(F)(F)F)c(Cl)c3)cn2)c2cccn2n1` [Compound 417e, (S)-(1-(4-((1-(3-chloro-4-(trifluoromethoxy)phenyl)-1H-imidazol-4-yl)amino)pyrrolo[2,1-f][1,2,4]triazin-2-yl)pyrrolidin-2-yl)methanol]: the IC50 was greater than 1000 nM.

Turning to `OC[C@@H]1CCCN1c1nc(Nc2cn(-c3ccccn3)cn2)c2cccn2n1` [Compound 66c, (S)-(1-(4-((1-(pyridin-2-yl)-1H-imidazol-4-yl)amino)pyrrolo[2,1-f][1,2,4]triazin-2-yl)pyrrolidin-2-yl)methanol], the IC50 is less than 100 nM.

Regarding `COc1cc(-n2cnc(Nc3nc(N4CCC[C@H]4CO)nc4cccc(F)c34)c2)cc(OC)c1OC` [Compound 341a, (S)-(1-(5-fluoro-4-((1-(3,4,5-trimethoxyphenyl)-1H-imidazol-4-yl)amino)quinazolin-2-yl)pyrrolidin-2-yl)methanol], the IC50 was less than 100 nM.

As for `COc1cc(OC)cc(-n2cnc(Nc3nc(N4CCC[C@H]4C(N)=O)nn4cccc34)c2)c1` [Compound 131a, (S)-1-(4-((1-(3,5-dimethoxyphenyl)-1H-imidazol-4-yl)amino)pyrrolo[2,1-f][1,2,4]triazin-2-yl)pyrrolidine-2-carboxamide], the IC50 is less than 100 nM.

Take `COc1cc(-n2cnc(Nc3nc(N4CCC[C@H]4C(N)=O)nc4cc(OC(C)C)ccc34)c2)cc(OC)c1OC` [Compound 171a, (S)-1-(7-isopropoxy-4-((1-(3,4,5-trimethoxyphenyl)-1H-imidazol-4-yl)amino)quinazolin-2-yl)pyrrolidine-2-carboxamide]: the IC50 is less than 100 nM.

With `COc1cc(-n2cnc(Nc3nc(N4CCC[C@H]4CO)nc4sc(CN5CCN(c6ccccn6)CC5)cc34)c2)cc(OC)c1OC` [Compound 108b, (S)-(1-(6-((4-(pyridin-2-yl)piperazin-1-yl)methyl)-4-((1-(3,4,5-trimethoxyphenyl)-1H-imidazol-4-yl)amino)thieno[2,3-d]pyrimidin-2-yl)pyrrolidin-2-yl)methanol], the half-maximal inhibitory concentration (IC50) was less than 100 nM.

For `COc1cc(-n2cnc(Nc3nc4c(c(N5CCC[C@H]5CO)n3)CCN(Cc3cccc(OC(F)(F)F)c3)C4)c2)cc(OC)c1OC` [Compound 217a, (S)-(1-(7-(3-(trifluoromethoxy)benzyl)-2-((1-(3,4,5-trimethoxyphenyl)-1H-imidazol-4-yl)amino)-5,6,7,8-tetrahydropyrido[3,4-d]pyrimidin-4-yl)pyrrolidin-2-yl)methanol], the IC50 is less than 100 nM.

`COc1cc(-n2cnc(Nc3nc(N4CCC[C@H]4CO)c4ncsc4n3)c2)cc(OC)c1OC` [Compound 150c, (S)-(1-(5-((1-(3,4,5-trimethoxyphenyl)-1H-imidazol-4-yl)amino)thiazolo[5,4-d]pyrimidin-7-yl)pyrrolidin-2-yl)methanol]: the IC50 is less than 100 nM.

Regarding `OC[C@@H]1CCCN1c1nc(Nc2cn(-c3ccc4[nH]ccc4c3)cn2)c2cccn2n1` [Compound 67c, (S)-(1-(4-((1-(1H-indol-5-yl)-1H-imidazol-4-yl)amino)pyrrolo[2,1-f][1,2,4]triazin-2-yl)pyrrolidin-2-yl)methanol], the IC50 was less than 100 nM.

Regarding `Cc1cc2c(Nc3cn(-c4ccccc4)cn3)nc(N3CCC[C@H]3CO)nc2s1` [Compound 22c, (S)-(1-(6-methyl-4-((1-phenyl-1H-imidazol-4-yl)amino)thieno[2,3-d]pyrimidin-2-yl)pyrrolidin-2-yl)methanol], the IC50 was less than 100 nM.

On to `COc1cc(-n2cnc(Nc3nc(N4CC[C@H](O)C4)c4cccn4n3)c2)cc(OC)c1OC` [Compound 211b, (S)-1-(2-((1-(3,4,5-trimethoxyphenyl)-1H-imidazol-4-yl)amino)pyrrolo[2,1-f][1,2,4]triazin-4-yl)pyrrolidin-3-ol], for which the IC50 was less than 100 nM.

Regarding `COc1cc(F)c(CC(=O)N2CCN(c3nc(Nc4cn(-c5ccccc5)cn4)c4cccn4n3)CC2)c(F)c1` [Compound 52a, 2-(2,6-difluoro-4-methoxyphenyl)-1-(4-(4-((1-phenyl-1H-imidazol-4-yl)amino)pyrrolo[2,1-f][1,2,4]triazin-2-yl)piperazin-1-yl)ethanone], the IC50 was in the range of 100 to 1000 nM.

Turning to `COc1cc(-n2cnc(Nc3nc(N4CCC[C@H]4CO)nc4c3COC4)c2)cc(OC)c1OC` [Compound 281b, (S)-(1-(4-((1-(3,4,5-trimethoxyphenyl)-1H-imidazol-4-yl)amino)-5,7-dihydrofuro[3,4-d]pyrimidin-2-yl)pyrrolidin-2-yl)methanol], the IC50 is less than 100 nM.

On to `COc1cc(-n2cnc(Nc3nc(N4CCC[C@H]4C(N)=O)nc4sc(CN5CCCCC5)cc34)c2)cc(OC)c1OC` [Compound 406b, (S)-1-(6-(piperidin-1-ylmethyl)-4-((1-(3,4,5-trimethoxyphenyl)-1H-imidazol-4-yl)amino)thieno[2,3-d]pyrimidin-2-yl)pyrrolidine-2-carboxamide], for which the IC50 is less than 100 nM.

In the case of `COc1cc(-n2cnc(Nc3nc(N4CCC[C@H]4CO)nc4c3cnn4CC3CCCCC3)c2)cc(OC)c1OC` [Compound 453d, (S)-(1-(1-(cyclohexylmethyl)-4-((1-(3,4,5-trimethoxyphenyl)-1H-imidazol-4-yl)amino)-1H-pyrazolo[3,4-d]pyrimidin-6-yl)pyrrolidin-2-yl)methanol], the IC50 was less than 100 nM.

In the case of `Cc1cc(-n2cnc(Nc3nc(N4CCC[C@H]4CO)nn4cccc34)c2)ccn1` [Compound 437e, (S)-(1-(4-((1-(2-methylpyridin-4-yl)-1H-imidazol-4-yl)amino)pyrrolo[2,1-f][1,2,4]triazin-2-yl)pyrrolidin-2-yl)methanol], the IC50 is less than 100 nM.

As to `Cn1cnc(Nc2nc(N3CCCC3c3ccccc3)nc3ccoc23)c1` (centres unmarked) [Compound 13a, N-(1-methyl-1H-imidazol-4-yl)-2-(2-phenylpyrrolidin-1-yl)furo[3,2-d]pyrimidin-4-amine], the IC50 is less than 100 nM.

As for `COc1cc(-n2cnc(Nc3cc4ccccc4c(N4CCC[C@H]4CO)n3)c2)cc(OC)c1OC` [Compound 346c, (S)-(1-(3-((1-(3,4,5-trimethoxyphenyl)-1H-imidazol-4-yl)amino)isoquinolin-1-yl)pyrrolidin-2-yl)methanol], the IC50 lay within 100 to 1000 nM.
